Laboratory results from US20060234985A1, “Combination therapy comprising a bisphosphonate and a hmg-coa reductase inhibitor” (priority 2002, published 2006).

Experiments:
myeloma cell line LP-1 = test: tetrazolium reduction (Promega MTS) assay with isobologram analysis, LP-1; assay type: cell-based, human
Experimental: (§1) We investigated the cytotoxic effect of the HMG-CoA reductase inhibitor fluvastatin on the human multiple myeloma cell lines LP-1, OPM-2, U266, NCI-H929 and RPMI-8226 in vitro using a tetrazolium reduction assay. After 3 days culture in the presence of 0 to 50 μM fluvastatin, the Promega MTS assay reagent was used to determine the level of inhibition of cell proliferation and/or cell death.
Using the same assay we investigated whether the activity of fluvastatin against multiple myeloma in vitro could be enhanced by the addition of the bisphosphonate Zometa® (zoledronic acid). Using 80% cell inhibition as an end point, isobolograms were constructed to visualize the interaction between fluvastatin and Zometa®.

U266 = test: tetrazolium reduction (Promega MTS) assay, U266; assay type: cell-based, human; details: 3 days culture
Experimental: as §1

[1] = test system: human multiple myeloma cell lines LP-1, OPM-2, U266, NCI-H929 and RPMI-8226; test: tetrazolium reduction (Promega MTS) assay of cell proliferation and/or cell death, myeloma cell line panel; assay type: cell-based; details: 3 days culture, p<0.05 by paired Student's t-test
Experimental: as §1
Using the same assay we investigated whether the activity of fluvastatin against multiple myeloma in vitro could be enhanced by the addition of the bisphosphonate Zometa® (zoledronic acid). Using 80% cell inhibition as an end point, isobolograms were constructed to visualize the interaction between fluvastatin and Zometa®. […] To illustrate this point, >50 μM fluvastatin or […] Zometa® alone was required to induce 80% cell death in the myeloma cell line LP-1 but the combination of 25 μM fluvastatin and 0.21 μM Zometa® had the same effect.

OPM-2 = test: tetrazolium reduction (Promega MTS) assay, OPM-2; assay type: cell-based, human; details: 3 days culture
Experimental: as §1

Row | SMILES | concentration required to induce 80% cell death (myeloma cell line LP-1; Zometa alone) | concentration required to induce 80% cell death (myeloma cell line LP-1; fluvastatin alone) | inhibition at 50 μM (U266) | inhibition of proliferation ([1]; 25 μM and 50 μM, all cell lines) | fluvastatin concentration as low as which significantly inhibited proliferation ([1]; all cell lines except RPMI-8226) | inhibition at 50 μM (OPM-2)
1 | O=P(O)(O)C(O)(Cn1ccnc1)P(=O)(O)O [Zometa®, 2-(imidazol-1yl)-1-hydroxyethane-1,1-diphosphonic acid] | > 100 µM | – | – | – | – | –
2 | CC(C)n1c(/C=C/C(O)CC(O)CC(=O)O)c(-c2ccc(F)cc2)c2ccccc21 (stereo not drawn) [fluvastatin] | – | > 50 µM | 45% | significantly inhibited proliferation | 2.5 µM | > 90%
